In patent US8067590B2, “Pyridone derivates with MCH antagonistic activity and medicaments comprising these compounds” (Boehringer Ingelheim International GmbH, priority 2006, dated 2011):

Target: T1, MCH-1R (Rattus norvegicus, UniProt P97639)
Experiment: not given
Design: host or cells: rats (in vivo)
Conditions: rats; cited from earlier work

T1 sequence (P97639 whole entry): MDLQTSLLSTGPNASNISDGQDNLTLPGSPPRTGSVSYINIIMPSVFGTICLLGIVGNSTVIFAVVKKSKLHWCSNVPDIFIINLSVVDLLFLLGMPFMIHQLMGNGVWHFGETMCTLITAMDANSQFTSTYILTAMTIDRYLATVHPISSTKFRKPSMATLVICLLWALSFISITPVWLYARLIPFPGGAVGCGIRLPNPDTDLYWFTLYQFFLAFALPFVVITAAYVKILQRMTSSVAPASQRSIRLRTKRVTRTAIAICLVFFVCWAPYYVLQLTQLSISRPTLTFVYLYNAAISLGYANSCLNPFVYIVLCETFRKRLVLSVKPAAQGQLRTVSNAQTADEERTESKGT

Row | Structure (SMILES) | effects in behavioural experiments
1 | COCC1=C(C(=O)OC)[C@H](c2ccc(F)c(F)c2)N(C(=O)NCCCN2CCC(c3cccc(NC(C)=O)c3)CC2)C(=O)N1 [SNAP-7941] | anxiolytic and antidepressant effects

Target: T2, hMCH-1R (Homo sapiens, UniProt Q99705)
T2 construct: expressed in transfected cells; host or cells: CHO/Galpha16 cells (membranes)
Experiment: MCH-1 receptor binding test (125I-MCH binding to membranes of hMCH-1R transfected CHO/Galpha16 cells)
Conditions: not given
Protocol: Membranes from CHO/Galpha16 cells stably transfected with human hMCH-1R are resuspended using a syringe (needle 0.6×25 mm) and diluted in test buffer (50 mM HEPES, 10 mM MgCl2, 2 mM EGTA, pH 7.00; 0.1% bovine serum albumin (protease-free), 0.021% bacitracin, 1 μg/ml aprotinin, 1 μg/ml leupeptin and 1 μM phosphoramidone) to a concentration of 5 to 15 μg/ml.
After the incubation the reaction is filtered using a cell harvester through 0.5% PEI treated fibreglass filters (GF/B, Unifilter Packard). The membranebound radioactivity retained on the filter is then determined after the addition of scintillator substance (Packard Microscint 20) in a measuring device (TopCount of Packard). The non-specific binding is defined as bound radioactivity in the presence of 1 micromolar MCH during the incubation period.
The analysis of the concentration binding curve is carried out on the assumption of one receptor binding site.

T2 sequence (Q99705 whole entry): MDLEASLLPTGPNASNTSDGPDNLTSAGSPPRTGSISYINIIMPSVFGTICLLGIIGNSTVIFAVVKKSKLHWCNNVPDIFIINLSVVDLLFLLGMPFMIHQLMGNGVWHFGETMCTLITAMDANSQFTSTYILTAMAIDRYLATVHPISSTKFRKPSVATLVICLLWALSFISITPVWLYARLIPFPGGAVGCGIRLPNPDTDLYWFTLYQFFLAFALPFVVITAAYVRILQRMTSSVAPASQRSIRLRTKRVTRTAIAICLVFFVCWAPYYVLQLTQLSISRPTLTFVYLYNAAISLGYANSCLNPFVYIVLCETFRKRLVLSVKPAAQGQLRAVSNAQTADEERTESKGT

Row | Structure (SMILES) | IC50
2 | O=C(Cn1ccc(OCc2ccccc2)cc1=O)c1ccc2c(c1)CCN(C(=O)C(F)(F)F)CC2 [Example 22.1, 4-Benzyloxy-1-{2-oxo-2-[3-(2,2,2-trifluoro-acetyl)-2,3,4,5-tetrahydro-1H-3-benzazepin-7-yl]-ethyl}-1H-pyridin-2-one] | 51 nM
3 | CN1CCc2sc(C(=O)Cn3ncc(OCc4ccccc4)cc3=O)cc2C1 [Example 44.2, 5-Benzyloxy-2-[2-(5-methyl-4,5,6,7-tetrahydro-thieno[3,2-c]pyridin-2-yl)-2-oxo-ethyl]-2H-pyridazin-3-one] | 20 nM
4 | CC1(O)CCN(Cc2ccc(C(=O)Cn3ccc(OCc4ccccc4)cc3=O)cc2)CC1 [Example 29.4] | 16 nM
5 | O=C(Cn1ccc(OCc2ccccc2)cc1=O)c1ccc(CN2CC(O)C2)cc1 [Example 29.13] | 18 nM
6 | CC(c1ccc(C(=O)Cn2ncc(OCc3ccccc3)cc2=O)cc1)N1CCN(C)CC1 (centres unmarked) [Example 47.5] | 27 nM
7 | O=c1cc(OCc2ccc(Br)cn2)ccn1CC(O)c1ccc2c(c1)CNCC2 (centres unmarked) [Example 39.1, 4-(5-Bromo-pyridin-2-ylmethoxy)-1-[2-hydroxy-2-(1,2,3,4-tetrahydro-isoquinolin-7-yl)-ethyl]-1H-pyridin-2-one] | 34 nM
8 | O=c1cc(OCc2ccccc2)ccn1CCc1ccc(CN2CCCC2)s1 [Example 28.1, 4-Benzyloxy-1-[2-(5-pyrrolidin-1-ylmethyl-thiophen-2-yl)-ethyl]-1H-pyridin-2-one] | 26 nM
9 | CN1Cc2ccc(C(=O)Cn3ccc(OCc4ccccc4)cc3=O)cc2C1 [Example 37.2, 4-Benzyloxy-1-[2-(2-methyl-2,3-dihydro-1H-isoindol-5-yl)-2-oxo-ethyl]-1H-pyridin-2-one] | 33 nM
10 | CN1CCN(Cc2ccc(C(=O)Cn3ncc(OCc4ccccc4)cc3=O)cc2)CC1 [Example 32.10] | 23 nM
11 | O=C(Cn1cnc(OCc2ccccc2)cc1=O)c1ccc(CN2CCCCC2)cc1 [Example 34.3] | 16 nM
12 | O=C(Cn1ccc(OCc2ccccc2)cc1=O)c1ccc(CN2CC[C@@H](O)C2)cc1 [Example 29.11] | 14 nM
13 | O=C(Cn1ccc(OCc2ccccc2)cc1=O)c1ccc(CN2CCC(O)CC2)cc1 [Example 29.3, 4-Benzyloxy-1-{2-[4-(4-hydroxy-piperidin-1-ylmethyl)-phenyl]-2-oxo-ethyl}-1H-pyridin-2-one] | 16 nM
14 | CN1CCc2cc(C(=O)Cn3ccc(OCc4ccccc4)cc3=O)ccc2C1 [Example 46.2, 4-Benzyloxy-1-[2-(2-methyl-1,2,3,4-tetrahydro-isoquinolin-6-yl)-2-oxo-ethyl]-1H-pyridin-2-one] | 21 nM
15 | O=C(Cn1ncc(OCc2ccccc2)cc1=O)c1ccc2c(c1)CNCC2 [Example 41.1, 5-Benzyloxy-2-[2-oxo-2-(1,2,3,4-tetrahydro-isoquinolin-7-yl)-ethyl]-2H-pyridazin-3-one] | 17 nM
16 | O=C(Cn1ncc(OCc2ccc(Cl)cn2)cc1=O)c1ccc(CN2CCCC2)cc1 [Example 33.8] | 19 nM
17 | CN1CCc2ccc(C(=O)Cn3ncc(OCc4ccccc4)cc3=O)cc2C1 [Example 42.1, 5-Benzyloxy-2-[2-(2-methyl-1,2,3,4-tetrahydro-isoquinolin-7-yl)-2-oxo-ethyl]-2H-pyridazin-3-one] | 14 nM

More lines, now with the values ahead:

Row | IC50 | Structure (SMILES)
18 | 8 nM | CC(=O)NC1CCN(Cc2ccc(CCn3ccc(OCc4ccsc4)cc3=O)cc2)CC1 [Example 4.2, N-[1-(4-{2-[2-Oxo-4-(thiophen-3-ylmethoxy)-2H-pyridin-1-yl]-ethyl}-benzyl)-piperidin-4-yl]-acetamide]
19 | 13 nM | O=c1cc(OCc2ccco2)ccn1CCc1ccc(CN2CCCC2)cc1 [Example 6.1, 4-(Furan-2-ylmethoxy)-1-[2-(4-pyrrolidin-1-ylmethyl-phenyl)-ethyl]-1H-pyridin-2-one]
20 | 9 nM | CC1(O)CCN(Cc2ccc(C(=O)Cn3ncc(OCc4ccccc4)cc3=O)cc2)CC1 [Example 32.3]
21 | 7 nM | O=c1cc(OCc2ccccc2)ccn1CCc1ccc2c(c1)CCNCC2 [Example 23.2, 4-Benzyloxy-1-[2-(2,3,4,5-tetrahydro-1H-3-benzazepin-7-yl)-ethyl]-1H-pyridin-2-one]
22 | 3 nM | O=c1cc(OCc2ccccc2)cnn1CCc1ccc(CN2CCCC2)cc1 [Example 21.2]
23 | 8 nM | O=c1cc(OCc2ccccc2)ccn1CCc1ccc2c(c1)CCNC2 [Example 27.2, 4-Benzyloxy-1-[2-(1,2,3,4-tetrahydro-isoquinolin-6-yl)-ethyl]-1H-pyridin-2-one]
24 | 6 nM | O=C(Cn1ncc(OCc2ccccc2)cc1=O)c1ccc(CNCC2CC2)cc1 [Example 32.8]
25 | 12 nM | O=C(Cn1ncc(OCc2ccccc2)cc1=O)c1ccc(CN2CCC(O)CC2)cc1 [Example 32.2]

Target: T1, MCH-1R
Experiment: not given
Design: host or cells: whole animals (in vivo)
Conditions: animals treated with the antagonist; cited from earlier work

Row | Structure (SMILES) | body weight effect in long term trials
26 | COCC1=C(C(=O)OC)[C@H](c2ccc(F)c(F)c2)N(C(=O)NCCCN2CCC(c3cccc(NC(C)=O)c3)CC2)C(=O)N1 [SNAP-7941] | lose significant amounts of weight
